# Reference: ChEMBL document CHEMBL1201862, “PubChem BioAssay data set” (2004)
# Calls of active or inactive are those of the source.
# Columns and labels:
# Estrogen receptor beta = Estrogen receptor beta (Homo sapiens, UniProt Q92731);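 note: recombinant ER-beta bound to coactivator SRC1 peptide in presence of estradiol agonist; inhibitors block coactivator peptide binding and lower the FRET signal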
# [1] = Luminescence-based dose response cell-based high throughput screening assay for cytotoxic compounds using the IEC-6 intestinal epithelial cell line. [Related pubchem assays: 1858 (Summary AID.), 1825 (Counterscreen.), 1907 (Confirmation screen.)]; format: functional
# [2] = cytotoxicity in HEK-293T cells, dose response, cytotoxicity control for TCR NF-kB inhibitor project, luminescence, T-cell screen hits (AID 489026); format: functional, cell-based;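 note: cells exposed to compound about 14 hours before the viability readout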
# [3] = biological target: Epstein-Barr nuclear antigen 1 (Epstein-Barr virus (strain B95-8) (HHV-4) (Human herpesvirus 4), UniProt P03211); experiment: EBNA-1 inhibitors, dose response, biochemical, fluorescence polarization, 1536-well (AID 2381); set-up: species or system human gammaherpesvirus 4;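 note: fluorescence polarization of a Cy5 DNA probe bound by EBNA-1 protein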
# [4] = biological target: Lytic switch protein BZLF1 (Epstein-Barr virus (strain B95-8) (HHV-4) (Human herpesvirus 4), UniProt P03206); experiment: EBV ZTA inhibitors, dose response, counter-screen for EBNA-1 inhibitor project, biochemical, fluorescence polarization, Epstein-Barr virus, 1536-well (AID 2377); set-up: species or system human gammaherpesvirus 4;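 note: fluorescence polarization of Cy5-labelled ZRE DNA probe bound by purified Zta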
# [5] = biological target: Sphingosine 1-phosphate receptor 2 (Homo sapiens, UniProt O95136); experiment: Dose Response Cell Based Assay for Agonists of the S1P2 Receptor of Purchased Analogues. [Related pubchem assays: 729, 843, 854, 736 ]; format: functional
# [6] = Luminescence Cell-Based Dose Response HTS to Identify Activators of Luciferase Translation or Activity in H4 […] Cells. [Related pubchem assays: 1829 (Project Summary), 1814 (Primary HTS)]; format: functional
# [7] = tested on: Streptococcus sp. 'group A'; experiment: growth inhibition of control SK(-) GAS strain, dose response, counter-screen for streptokinase expression inhibitor project, luminescence, kanamycin, BacTiterGlo, confirmation (AID 1900); format: functional, organism-based
# [8] = biological target: T1, Neuropeptide Y receptor type 2 (Homo sapiens, UniProt P49146); experiment: NPY-Y2 antagonist potency, selectivity check, dose response, counter-screen for NPY-Y1 antagonist project, cell-based (AID 1278); format: functional
# T1 sequence (P49146 whole entry): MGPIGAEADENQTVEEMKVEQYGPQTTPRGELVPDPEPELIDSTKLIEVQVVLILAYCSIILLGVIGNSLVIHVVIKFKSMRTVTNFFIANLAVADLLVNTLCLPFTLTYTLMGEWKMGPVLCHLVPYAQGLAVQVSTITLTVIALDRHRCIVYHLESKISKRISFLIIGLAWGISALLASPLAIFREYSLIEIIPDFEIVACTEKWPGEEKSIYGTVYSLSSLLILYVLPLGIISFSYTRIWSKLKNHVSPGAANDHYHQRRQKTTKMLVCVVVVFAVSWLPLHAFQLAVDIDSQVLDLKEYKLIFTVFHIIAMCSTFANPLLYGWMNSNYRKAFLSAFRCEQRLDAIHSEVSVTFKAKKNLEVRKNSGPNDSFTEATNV
# H4 = experiment: Luminescence Cell-Based Dose Response HTS to Identify Activators of 5'UTR Stem-Loop Driven Prion Protein mRNA Translation in H4 Neuroglioblastoma Cells. [Related pubchem assays: 1829 (Project Summary), 1814 (Primary HTS)]; format: functional; details: Homo sapiens
# Streptokinase A = biological target: T2, Streptokinase A (Streptococcus pyogenes serotype M1, UniProt P10520); experiment: S. pyogenes streptokinase expression inhibitors, potency, dose response, plasminogen activation absorbance, OD405 (AID 1914); format: functional, Streptococcus pyogenes M1 GAS;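 note: secreted streptokinase activity via plasminogen activation per viability signal from cell pellet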
# T2 sequence (P10520 whole entry): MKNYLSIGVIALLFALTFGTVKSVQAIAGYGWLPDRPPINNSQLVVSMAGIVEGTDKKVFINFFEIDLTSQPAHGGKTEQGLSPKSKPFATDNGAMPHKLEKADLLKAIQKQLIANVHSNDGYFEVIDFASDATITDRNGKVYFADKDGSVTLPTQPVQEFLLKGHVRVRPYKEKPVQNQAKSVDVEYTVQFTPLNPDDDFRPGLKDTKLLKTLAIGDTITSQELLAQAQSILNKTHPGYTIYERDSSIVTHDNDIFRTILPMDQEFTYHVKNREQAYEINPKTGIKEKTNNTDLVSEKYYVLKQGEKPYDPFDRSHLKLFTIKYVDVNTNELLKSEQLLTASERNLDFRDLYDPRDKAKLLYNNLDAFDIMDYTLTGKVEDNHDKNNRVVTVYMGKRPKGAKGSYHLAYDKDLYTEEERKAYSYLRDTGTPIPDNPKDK
# [9] = biological target: T3, Neuropeptide Y receptor type 1 (Homo sapiens, UniProt P25929); experiment: NPY-Y1 receptor antagonist potency, dose response, cell-based (AID 1277); format: functional
# T3 sequence (P25929 whole entry): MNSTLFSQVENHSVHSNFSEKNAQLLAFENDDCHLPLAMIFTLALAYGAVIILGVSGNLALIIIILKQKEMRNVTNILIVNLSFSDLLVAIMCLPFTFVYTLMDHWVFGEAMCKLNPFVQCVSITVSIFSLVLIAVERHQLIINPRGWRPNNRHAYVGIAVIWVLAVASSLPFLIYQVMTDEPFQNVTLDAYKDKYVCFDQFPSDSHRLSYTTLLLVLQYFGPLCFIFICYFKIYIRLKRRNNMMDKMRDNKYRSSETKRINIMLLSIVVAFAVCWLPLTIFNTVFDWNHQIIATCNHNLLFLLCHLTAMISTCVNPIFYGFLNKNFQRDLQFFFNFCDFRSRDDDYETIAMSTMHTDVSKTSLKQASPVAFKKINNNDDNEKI
# Streptococcus = experiment: Group A Streptococcus viability loss, dose response, counter-screen for streptokinase expression inhibitor project, luminescence, BacTiterGlo (AID 1915); format: functional, organism-based;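 note: potency for reduction of bacterial viability or growth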
# [10] = biological target: T3, Neuropeptide Y receptor type 1; format: functional
# [11] = biological target: T1, Neuropeptide Y receptor type 2; format: functional, cell-based
# Prothrombin = Prothrombin (Homo sapiens, UniProt P00734); experiment: Thrombin 1536 HTS Dose Response Confirmation. [Related pubchem assays: 1046 (Thrombin 1536 HTS; hits were confirmed in this assay)]; format: functional
# [12] = NIH-3T3 fibroblast cytotoxicity, dose response, cytotoxicity control, cell-based, fluorescence, Alamar Blue, secondary assay (AID 2327); format: functional;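 note: NIH-3T3 mouse fibroblasts cultured with fluconazole at 8 µg/mL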
# [13] = C. albicans growth with fluconazole, confirmation, fluorescence, retest (AID 2467); format: functional, cell-based
# Ephrin type-A receptor 4 = Ephrin type-A receptor 4 (Mus musculus, UniProt Q03137); experiment: inhibitors of EphA4 binding to KYL peptide, primary screen, biochemical, colorimetric, mouse EphA4 (AID 689); format: functional
# [14] = biological target: Voltage-gated inwardly rectifying potassium channel KCNH2 (Homo sapiens, UniProt Q12809); experiment: hERG protection from proarrhythmic block, potency, dose response, cell-based, thallium flux (AID 2121); format: ADME
# Cytochrome P450 2C9 = Cytochrome P450 2C9 (Homo sapiens, UniProt P11712)
# [15] = Luminescence Cell-Based Dose Response to Identify Activators of 5'UTR Stem-Loop Driven Prion Protein mRNA Translation in H4-C Neuroglioblastoma Cells. [Related pubchem assays: 1829 (Project Summary), 1814 (Primary HTS)]; format: functional
# [16] = Luminescence Cell-Based Dose Response to Identify Activators of Luciferase Translation or Activity in H4-C Neuroglioblastoma Cells. [Related pubchem assays: 1829 (Project Summary), 1814 (Primary HTS)]; format: functional
# [17] = Luminescence Cell-Based Dose Confirmation to Identify Activators of 5'UTR Stem-Loop Driven Alpha-Synuclein mRNA Translation in H4 Neuroglioblastoma Cells. [Related pubchem assays: 1829 (Project Summary), 1814 (Primary HTS)]; format: functional
# [18] = biological target: T4, Voltage-gated N-type calcium channel alpha-1B subunit/Amyloid beta A4 precursor protein-binding family A member 1 (Homo sapiens, UniProt Q00975+Q02410); format: protein assay
# [19] = biological target: T4, Voltage-gated N-type calcium channel alpha-1B subunit/Amyloid beta A4 precursor protein-binding family A member 1; format: protein assay; remark: listed apart in the source
# cells [20] = format: functional, cell-based
# [21] = inhibitors of intracellular T. cruzi replication, confirmation, NIH3T3 host cells, beta-gal luminescence (AID 2044); format: functional, cell-based;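 note: intracellular parasites grown in NIH/3T3 mouse fibroblasts as host cells; luminescent beta-galactosidase reporter signal from transgenic T. cruzi replicating inside host cells; inhibitors lower the luminescence signal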
# cells [22] = format: functional, cell-based; remark: listed apart in the source
# [23] = cytotoxicity toward NIH3T3 fibroblasts, dose response, counter-screen, cell-based, ATP luminescence, mouse fibroblasts (AID 2010); format: functional;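 note: cells exposed to compound for about 90 hours before reading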
# Nonstructural protein 1 = Nonstructural protein 1 (Influenza A virus, UniProt Q194T2); format: functional, Influenza A virus (A/California/07/2009(H1N1))
# INS1 = experiment: beta cell apoptosis inhibitors, cytokine rescue, dose response, luminescence, retest (AID 449756); format: functional, cell-based; details: Rattus norvegicus;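 note: cell death triggered by IL-1 beta plus TNF-alpha plus IFN-gamma mixture; protective hits raise ATP signal compared with cytokine alone wells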
# [24] = Shn3 3'UTR reporter inhibitors, dose response, cell-based, Clone20 osteoblasts, firefly luciferase, cherry-picked (AID 624132); format: functional;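 note: firefly luciferase luminescence from reporter carrying the Shn3 3'UTR in osteoblasts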
# [25] = HepG2 cell cytotoxicity, dose response, cytotoxicity control for Shn3 inhibitor project, CellTiter-Glo, cherry-picked (AID 624134); format: functional, cell-based
# [26] = control 3'UTR Renilla luciferase suppression, dose response, counter-screen for Shn3 inhibitor project, cell-based, Clone20-Shn3RL, cherry-picked (AID 624133); format: functional
# [27] = Artemis endonuclease inhibitor potency, dose response, biochemical, fluorescence intensity (AID 720701); format: functional;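 note: Artemis endonuclease enzyme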
# Estrogen receptor beta, sequence (Q92731 whole entry): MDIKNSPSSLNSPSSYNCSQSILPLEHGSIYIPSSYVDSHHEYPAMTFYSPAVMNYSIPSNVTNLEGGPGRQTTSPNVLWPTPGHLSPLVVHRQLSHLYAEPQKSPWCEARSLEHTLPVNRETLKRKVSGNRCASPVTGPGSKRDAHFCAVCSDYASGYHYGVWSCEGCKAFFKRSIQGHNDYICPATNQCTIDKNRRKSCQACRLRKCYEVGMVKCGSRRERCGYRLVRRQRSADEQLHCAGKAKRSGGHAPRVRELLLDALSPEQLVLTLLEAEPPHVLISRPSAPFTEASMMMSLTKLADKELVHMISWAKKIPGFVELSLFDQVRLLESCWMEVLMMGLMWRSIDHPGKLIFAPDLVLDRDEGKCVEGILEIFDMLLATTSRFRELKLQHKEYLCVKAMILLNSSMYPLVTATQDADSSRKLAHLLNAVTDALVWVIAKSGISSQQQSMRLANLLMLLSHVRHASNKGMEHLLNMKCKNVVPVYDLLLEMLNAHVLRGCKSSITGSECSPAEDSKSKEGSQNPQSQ
# Lytic switch protein BZLF1, sequence (P03206 whole entry): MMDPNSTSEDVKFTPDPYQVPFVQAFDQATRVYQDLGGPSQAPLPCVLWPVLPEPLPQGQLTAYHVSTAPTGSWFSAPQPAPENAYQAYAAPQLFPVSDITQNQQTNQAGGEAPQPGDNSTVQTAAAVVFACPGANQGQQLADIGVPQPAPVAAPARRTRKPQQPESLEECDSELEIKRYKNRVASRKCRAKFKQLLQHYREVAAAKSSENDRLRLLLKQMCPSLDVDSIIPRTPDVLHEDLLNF
# Voltage-gated inwardly rectifying potassium channel KCNH2, sequence (Q12809 whole entry): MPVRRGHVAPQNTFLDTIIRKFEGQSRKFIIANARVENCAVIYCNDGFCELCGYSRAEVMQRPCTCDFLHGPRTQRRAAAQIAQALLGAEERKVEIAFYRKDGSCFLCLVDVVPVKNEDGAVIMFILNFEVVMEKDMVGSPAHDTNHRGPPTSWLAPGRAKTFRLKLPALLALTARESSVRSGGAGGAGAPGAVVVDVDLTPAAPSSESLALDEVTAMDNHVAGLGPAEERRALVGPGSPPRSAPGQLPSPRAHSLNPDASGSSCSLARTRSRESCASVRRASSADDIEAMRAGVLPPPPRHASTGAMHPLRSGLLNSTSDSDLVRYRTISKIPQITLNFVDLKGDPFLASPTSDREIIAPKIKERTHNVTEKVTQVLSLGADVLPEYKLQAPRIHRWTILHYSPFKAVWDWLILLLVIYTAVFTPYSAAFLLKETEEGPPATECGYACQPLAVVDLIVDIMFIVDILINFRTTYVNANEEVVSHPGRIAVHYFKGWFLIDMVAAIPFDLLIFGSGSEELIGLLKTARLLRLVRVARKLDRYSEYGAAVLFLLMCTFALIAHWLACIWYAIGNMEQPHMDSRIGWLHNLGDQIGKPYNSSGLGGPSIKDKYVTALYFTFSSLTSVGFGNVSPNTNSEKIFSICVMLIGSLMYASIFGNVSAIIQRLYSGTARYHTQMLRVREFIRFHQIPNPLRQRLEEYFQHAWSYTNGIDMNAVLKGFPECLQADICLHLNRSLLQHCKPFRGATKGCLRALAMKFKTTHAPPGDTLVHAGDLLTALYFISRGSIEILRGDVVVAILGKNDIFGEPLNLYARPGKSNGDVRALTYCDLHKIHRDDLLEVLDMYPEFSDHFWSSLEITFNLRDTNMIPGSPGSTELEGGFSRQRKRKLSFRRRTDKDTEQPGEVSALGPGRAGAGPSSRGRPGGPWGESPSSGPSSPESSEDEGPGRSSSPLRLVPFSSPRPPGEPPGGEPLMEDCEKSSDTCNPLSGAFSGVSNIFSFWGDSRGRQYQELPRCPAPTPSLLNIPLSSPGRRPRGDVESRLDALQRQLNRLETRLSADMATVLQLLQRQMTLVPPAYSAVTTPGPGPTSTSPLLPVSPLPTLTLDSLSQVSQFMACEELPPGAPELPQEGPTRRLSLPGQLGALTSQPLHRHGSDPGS
# T4 sequence (Q00975 whole entry): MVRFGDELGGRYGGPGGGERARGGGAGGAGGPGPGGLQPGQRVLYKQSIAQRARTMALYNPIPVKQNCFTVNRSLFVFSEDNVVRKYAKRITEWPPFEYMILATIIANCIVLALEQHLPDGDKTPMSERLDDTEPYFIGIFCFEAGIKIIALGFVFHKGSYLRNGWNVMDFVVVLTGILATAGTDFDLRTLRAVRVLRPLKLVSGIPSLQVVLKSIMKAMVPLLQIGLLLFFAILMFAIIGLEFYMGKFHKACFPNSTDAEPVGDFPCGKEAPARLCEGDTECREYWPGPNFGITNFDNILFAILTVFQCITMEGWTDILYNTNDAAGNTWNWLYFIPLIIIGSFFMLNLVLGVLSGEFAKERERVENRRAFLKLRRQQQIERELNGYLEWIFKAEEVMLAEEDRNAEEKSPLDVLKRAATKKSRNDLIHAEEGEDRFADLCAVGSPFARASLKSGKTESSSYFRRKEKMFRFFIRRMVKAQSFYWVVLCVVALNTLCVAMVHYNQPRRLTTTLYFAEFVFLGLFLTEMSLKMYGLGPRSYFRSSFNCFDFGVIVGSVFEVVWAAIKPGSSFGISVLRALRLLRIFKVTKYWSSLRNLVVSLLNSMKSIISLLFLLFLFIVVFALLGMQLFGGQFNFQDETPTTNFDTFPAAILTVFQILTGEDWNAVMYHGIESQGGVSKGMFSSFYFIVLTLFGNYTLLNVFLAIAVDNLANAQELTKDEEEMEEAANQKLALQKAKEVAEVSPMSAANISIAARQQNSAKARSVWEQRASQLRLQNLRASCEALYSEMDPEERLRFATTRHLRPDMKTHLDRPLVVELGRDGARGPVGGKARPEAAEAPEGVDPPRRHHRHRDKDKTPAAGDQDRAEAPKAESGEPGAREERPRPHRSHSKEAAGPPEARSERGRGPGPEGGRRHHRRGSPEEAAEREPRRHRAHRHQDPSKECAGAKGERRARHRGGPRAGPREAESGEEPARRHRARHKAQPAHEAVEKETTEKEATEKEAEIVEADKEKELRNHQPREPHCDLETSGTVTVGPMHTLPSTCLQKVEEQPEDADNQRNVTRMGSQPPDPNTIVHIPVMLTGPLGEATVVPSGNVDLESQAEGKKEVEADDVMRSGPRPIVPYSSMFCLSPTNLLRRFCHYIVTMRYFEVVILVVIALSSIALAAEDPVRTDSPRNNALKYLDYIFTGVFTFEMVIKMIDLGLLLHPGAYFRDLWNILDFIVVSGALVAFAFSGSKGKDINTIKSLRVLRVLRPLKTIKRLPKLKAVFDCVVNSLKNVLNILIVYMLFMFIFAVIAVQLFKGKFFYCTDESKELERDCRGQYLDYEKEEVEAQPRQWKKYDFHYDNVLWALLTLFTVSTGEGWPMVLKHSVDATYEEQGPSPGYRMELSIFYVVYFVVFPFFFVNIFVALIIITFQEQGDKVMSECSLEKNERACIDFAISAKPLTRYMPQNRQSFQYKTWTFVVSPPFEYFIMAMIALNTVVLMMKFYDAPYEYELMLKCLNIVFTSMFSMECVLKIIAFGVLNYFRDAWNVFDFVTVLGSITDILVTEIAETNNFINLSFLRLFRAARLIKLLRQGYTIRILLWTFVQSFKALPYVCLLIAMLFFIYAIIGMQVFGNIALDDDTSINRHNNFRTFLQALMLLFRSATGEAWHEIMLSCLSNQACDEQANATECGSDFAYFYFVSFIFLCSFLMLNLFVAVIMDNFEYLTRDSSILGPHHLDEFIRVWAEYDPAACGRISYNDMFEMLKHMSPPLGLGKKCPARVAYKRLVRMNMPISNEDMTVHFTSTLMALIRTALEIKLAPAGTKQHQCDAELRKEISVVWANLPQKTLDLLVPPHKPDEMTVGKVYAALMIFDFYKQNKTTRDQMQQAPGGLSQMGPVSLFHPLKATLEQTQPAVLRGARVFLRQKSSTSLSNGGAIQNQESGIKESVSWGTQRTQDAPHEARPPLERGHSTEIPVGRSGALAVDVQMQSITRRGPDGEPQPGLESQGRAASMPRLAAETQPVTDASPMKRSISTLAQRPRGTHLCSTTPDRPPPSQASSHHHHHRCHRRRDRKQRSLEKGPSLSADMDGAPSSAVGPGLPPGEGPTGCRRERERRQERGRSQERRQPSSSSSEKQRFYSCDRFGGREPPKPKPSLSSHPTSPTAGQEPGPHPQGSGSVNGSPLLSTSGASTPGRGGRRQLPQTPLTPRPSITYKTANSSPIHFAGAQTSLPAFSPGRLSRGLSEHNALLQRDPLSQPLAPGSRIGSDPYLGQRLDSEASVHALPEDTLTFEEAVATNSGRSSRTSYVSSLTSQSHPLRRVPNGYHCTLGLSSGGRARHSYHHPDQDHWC
# T4 sequence (Q02410 whole entry): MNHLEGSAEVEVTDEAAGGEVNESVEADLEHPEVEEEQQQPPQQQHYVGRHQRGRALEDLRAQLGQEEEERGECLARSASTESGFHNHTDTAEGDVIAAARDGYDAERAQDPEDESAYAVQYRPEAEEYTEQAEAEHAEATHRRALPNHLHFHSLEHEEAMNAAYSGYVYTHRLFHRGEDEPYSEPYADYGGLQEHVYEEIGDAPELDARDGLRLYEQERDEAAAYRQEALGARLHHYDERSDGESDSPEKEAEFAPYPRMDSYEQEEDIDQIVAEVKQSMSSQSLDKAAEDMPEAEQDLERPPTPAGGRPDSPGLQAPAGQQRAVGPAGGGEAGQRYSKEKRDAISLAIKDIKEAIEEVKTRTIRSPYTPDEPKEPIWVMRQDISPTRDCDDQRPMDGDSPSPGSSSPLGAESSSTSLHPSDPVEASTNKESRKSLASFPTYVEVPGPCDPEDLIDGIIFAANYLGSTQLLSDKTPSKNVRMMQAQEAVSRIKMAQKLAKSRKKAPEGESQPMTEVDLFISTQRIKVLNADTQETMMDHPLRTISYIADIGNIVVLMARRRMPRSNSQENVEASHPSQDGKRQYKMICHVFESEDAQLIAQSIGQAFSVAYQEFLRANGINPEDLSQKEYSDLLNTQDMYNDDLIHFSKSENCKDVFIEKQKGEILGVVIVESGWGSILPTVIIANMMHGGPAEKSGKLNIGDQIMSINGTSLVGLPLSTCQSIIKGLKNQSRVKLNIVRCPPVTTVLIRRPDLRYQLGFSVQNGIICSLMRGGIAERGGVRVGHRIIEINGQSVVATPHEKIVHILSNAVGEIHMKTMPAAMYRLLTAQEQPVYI
compound,measurement,setting,value
O=S(=O)(c1cccc(-c2nc3ccccc3s2)c1)N1CCOCC1,IC50,Estrogen receptor beta,> 50 µM (not active)
CC(=O)O[C@H]1C(=O)[C@@]2(C)C([C@H](OC(=O)c3ccccc3)[C@]3(O)C[C@H](OC(=O)[C@H](O)[C@@H](NC(=O)Cc4ccccc4)c4ccccc4)C(C)=C1C3(C)C)[C@]1(OC(C)=O)CO[C@@H]1C[C@@H]2O (some centres not stated),IC50,[1],0.396 µM (active)
same,IC50,[2],> 80 µM (inactive)
CNS(=O)(=O)c1cccc(C(=O)OCC(=O)Nc2ccc(-c3nc4ccc(C)cc4s3)cc2)c1,IC50,[3],5.63 µM (active)
same,IC50,[4],> 111 µM (not active)
Cc1cc(C(=O)CN2C(=O)C(=O)N(Cc3ccco3)C2=O)c(C)n1Cc1ccccc1,EC50,[5],> 30 µM (not active)
Clc1ccc(-c2csc(Nc3ccccc3)[n+]2Cc2ccco2)c(Cl)c1,EC50,[6],> 120 µM (not active)
same,EC50,[7],12.3 µM (active)
same,IC50,[8],> 35 µM (not active)
same,EC50,H4,51.2 µM (active)
same,EC50,Streptokinase A,2.27 µM (active)
same,IC50,[9],> 35 µM (not active)
same,EC50,Streptococcus,> 150 µM (not active)
Cc1ccccc1/C=C/c1nc2ccccc2c(=O)n1CCc1ccccc1,IC50,[10],4.26 µM (active)
same,IC50,[11],5.52 µM (active)
OC1(c2ccccc2)CCN(Cc2ccccc2)C2CCCCC21 (configuration not stated),IC50,[10],10.2 µM (not active)
same,IC50,[11],4.38 µM (active)
Cc1c(Cl)cccc1NC(=O)Cc1ccc([N+](=O)[O-])cc1,IC50,Prothrombin,> 50 µM (not active)
Cc1ccc2cc(C=C(C#N)C#N)c(N3CCCCC3)nc2c1,EC50,[12],46.4 µM (active)
same,EC50,[13],> 38 µM (not active)
same,IC50,Ephrin type-A receptor 4,24.4 µM (active)
COc1ccccc1NC(=S)NC(=O)c1ccc(-c2ccc(Cl)cc2)o1,EC50,[14],0.1 µM (active)
same,AC50,Cytochrome P450 2C9,inconclusive
CC(C)CN(CCC(=O)O)CC(C)C,IC50,Estrogen receptor beta,> 50 µM (not active)
Cc1cc(C(=O)CN2C(=O)C(=O)N(Cc3ccccc3)C2=O)c(C)n1Cc1ccco1,EC50,[5],> 30 µM (not active)
C=CCn1c(=S)[nH]c2cc(-c3ccccc3)sc2c1=O,EC50,[14],1.11 µM (active)
COCc1nc2oc3ccc(C)cc3c(=O)c2cc1C(=O)OC,EC50,[15],0.433 µM (active)
same,EC50,[6],< 0.1 µM (inconclusive)
same,EC50,H4,> 120 µM (not active)
same,EC50,[16],0.402 µM (active)
same,EC50,[17],0.282 µM (active)
O=C(Nc1nc2cc3c(cc2s1)OCCO3)c1ccc(N2C(=O)CCC2=O)cc1,IC50,[18],23 µM (active)
same,IC50,[3],15.6 µM (not active)
same,IC50,[19],> 50 µM (inactive)
same,IC50,[4],15.1 µM (not active)
COc1cccc(C(NC(C)=O)c2ccc3cccnc3c2O)c1 (configuration not stated),EC50,[12],3.88 µM (inconclusive)
same,EC50,cells [20],7.47 µM (active)
same,EC50,[13],1.38 µM (active)
same,EC50,[21],1.07 µM (active)
same,IC50,[1],1.48 µM (active)
same,EC50,cells [22],> 350 µM (not active)
same,EC50,[23],1.07 µM (active)
same,IC50,Nonstructural protein 1,14.3 µM (active)
same,AC50,INS1,0.886 µM (active)
same,AC50,[24],1.39 µM (active)
same,AC50,[25],2.61 µM (active)
same,AC50,[26],1.04 µM (active)
CSc1nc(-c2ccco2)nn1C(=O)c1ccco1,IC50,Prothrombin,0.22 µM (active)
COc1cc2c(C#N)c(N3CCN(c4ccccc4OC)CC3)nc(N)c2c(N)n1,EC50,[7],4.63 µM (active)
same,EC50,Streptokinase A,22.6 µM (active)
same,EC50,Streptococcus,> 150 µM (not active)
same,IC50,[27],> 20 µM (inactive)
